Data reported in patent US20260055137A1, “NOVEL ISOLATED PEPTIDES, PROTEIN HYDROLYSATE COMPRISING THE SAID ISOLATED PEPTIDES AND USE THEREOF” (BETAGRO PUBLIC COMPANY LIMITED, priority 2022, published 2026).
No end group written: not given here.

What was measured:
sensory panel [1] = test: Taste threshold in water (intrinsic taste), duo-trio tests; format: in vivo
Protocol: (§1) The threshold concentrations of 21 newly identified peptides were determined in water for the intrinsic taste and in model broth (pH 6.0 adjusted with 1% formic acid) for the taste modulating properties, respectively (Table 4). The peptides were dissolved, serially diluted 1:2, and presented to the panel using duo-trio-tests with ascending concentrations as reported in literatures. The geometric mean of the last and the second to last concentration was calculated and taken as the individual recognition threshold. The threshold value of the sensory panel was approximated by averaging the threshold values of the individuals in two independent sessions. [formula] • wherein • Cp: the threshold of a panelist, • C1: the first correctly evaluated concentration, • C0: the first misjudged concentration [formula] • wherein • Cs: the thresholds of total panelists, • Cp: the threshold of a panelist, • n: the number of panel members

sensory panel [2] = test: Taste threshold in model broth (taste modulating properties), duo-trio tests; format: in vivo; conditions: for Threshold in model broth / Taste properties in model broth: model broth pH 6.0; for Threshold in model broth: taste modulating threshold
Protocol: as §1

Panelists = test: Salt isointensity test; format: in vivo; conditions: for Average perceived salt isointensity / Salt-taste enhancing or reducing property: peptide 1 mmol/L in model broth containing 50 mM NaCl; for Enhancement or reduction: versus 50 mM NaCl, isointensity above 50 = enhancement, below 50 = reduction, peptide 1 mmol/L
Protocol: To investigate the effects of peptides on the perceived saltiness, a salt isointensity test was performed according to literatures. In salt-isointensity test, the peptides (1 mmol/L) were spiked into model broth containing 50 mM NaCl and the panelists were asked to evaluate the intensity of saltiness compared with the following NaCl concentrations of 30, 40, 50, 60, 70, and 80 mmol/L. The results are shown in Table 5.

[3] = Quantification of peptides in the hydrolyzed chicken plasma sample and DoT factors; conditions: ratio of concentration in hydrolyzed chicken plasma sample to taste threshold in model broth
Description: To identify the peptides which play a key role on taste-active and taste-modulating effects, not only the 21 newly identified peptides, but also literature-known basic tastants (e.g., amino acids, γ-glutamyl peptides, cations, anions, etc.) were quantified in the hydrolyzed chicken plasma sample. Focusing on the 21 newly identified peptides, the taste quality, taste thresholds, dose over threshold (DOT) factors and concentrations of the peptides in the hydrolyzed chicken plasma sample are shown in Table 6. The taste thresholds determined for the newly identified peptides (those are listed in Table 6) were used for the calculation of DoT factors which are defined as the ratio of the concentration of a substance and its corresponding taste threshold concentration. The DoT factors enable a first estimation of the taste contribution as substances with DoT factors≥1 most likely contribute directly to the perceived taste.

sensory panel [4] = test: Taste threshold in model broth (taste modulating properties), duo-trio tests; format: in vivo; conditions: as listed in Table 7

Substance	Threshold in water (sensory panel [1])	Threshold in model broth (sensory panel [2]) [µmol/L]	Average perceived salt isointensity (Panelists) [mmol/L NaCl]	Salt-taste enhancing or reducing property (Panelists)	Enhancement or reduction (Panelists) [%]	Taste properties in water (sensory panel [1])	Taste properties in model broth (sensory panel [2])	DoT factor [3]	Taste threshold in model broth (sensory panel [2]; as listed in Table 6) [µmol/L]	Taste threshold in food products, Model broth (sensory panel [4]) [µmol/L]
EDEVLATP [SEQ ID NO: 21]	894 µmol/L	96	59.8	salt-tase enhancing	20					
EFDEKAPD [SEQ ID NO: 11]	865 µmol/L	67	62.1	salt-tase enhancing	24	bitter				
EFDEKPAD [SEQ ID NO: 6]	tasteless	94	60.0	salt-tase enhancing	20					
EEVEEEEVE [SEQ ID NO: 10]	233 µmol/L	34					umami, kokumi	0.1		
Pro-Glu-Arg-Asn-Glu (PERNE; Poultry) [SEQ ID NO: 4]	100 µmol/L	231						0.1		
EPEGDVHQ [SEQ ID NO: 20]	243 µmol/L	61					umami, kokumi			
Glu-Ala-Glu-Phe-Asp (EAEFD; Poultry) [SEQ ID NO: 3]	116 µmol/L		43.0	salt-tase reducing	14				95	95
Pro-Ile-Asn-Asp-Asn (PINDN; Poultry) [SEQ ID NO: 14]	tasteless	26	63.6	salt-tase enhancing	27					
Glu-Asp-Met-Ala-Pro (EDMAP; Poultry) [SEQ ID NO: 13]	1024 µmol/L	151	43.8		13		kokumi, salty	0.2		
Arg-Asn-Gly-Pro-Arg (RNGPR; Poultry) [SEQ ID NO: 17]	tasteless	101					kokumi, umami	0.0		
